Legend:
[1] = test system: RKO (RKOp27) human colon adenocarcinoma cells; assay: Alamar Blue cell viability assay, anti-proliferative/cytotoxic activity, RKO p27 uninduced; type: cell-based; settings: RKOp27, 72 h, proliferating cells, absence of the inducer Ponasterone A, 72 hours incubation
Protocol: The anti-proliferative/cytotoxic activity of the compounds described herein, can be tested on subdlones of RKO (RKOp27) human colon adenocarcinoma cells (Schmidt et al., Oncogene 19, 2423-2429; 2000) using the Alamar Blue cell viability assay (described in O'Brien et al. Eur J Biochem 267, 5421-5426, 2000). The compounds are dissolved as 20 mM solutions in dimethylsulfoxide (DMSO) and subsequently diluted in semi-logarithmic steps. DMSO dilutions are further diluted 1:100 into Dulbecco's modified Eagle's medium (DMEM) containing 10% fetal calf serum to a final concentration twice as much as the final concentration in the test. RKO subclones are seeded into 96 well flat bottom plates at a density of 4000 cells per well in a volume of 50 µl per well. 24 hours after seeding the 50 μl each of the compound dilutions in DMEM medium are added into each well of the 96 Well plate. Each compound dilution is tested as quadruplicates. Wells containing untreated control cells are filled with 50 μl DMEM medium containing 1% DMSO. The cells are then incubated with the substances for 72 hours at 37° C. in a humidified atmosphere containing 5% carbon dioxide. To determine the viability of the cells, 10 μl of an Alamar Blue solution (Biosource) are added and the fluorescence is measured at an extinction of 544 nm and an emission of 590 nm. For the calculation of the cell viability the emission value from untreated cells is set as 100% viability and the emission rates of treated cells are set in relation to the values of untreated cells. Viabilities are expressed as % values.
The corresponding IC50 values of the compounds for anti-proliferative/cytotoxic activity are determined from the concentration-effect curves.
Representative IC50 values for anti-proliferation/cytotoxicity determined for the compounds mentioned and numbered as Examples in the examples above follow from the following table A (1st column), in which the numbers of the compound correspond to the numbers of the examples. Any or all of the compounds according to the present invention which are listed in the Table A, as well as their salts, are to be mentioned as a particular interesting subject of the present invention.

[2] = test system: RKO colon adenocarcinoma cells (RKOp27) arrested by expression of ectopic p27Kip1; assay: Alamar Blue cell viability assay, cell cycle specific mode of action, RKO p27 induced (arrested by Ponasterone A-induced p27Kip1); type: cell-based; settings: Homo sapiens, RKOp27, 72 h, cells arrested by p27Kip1 induced with 10 μM Ponasterone A, 72 hours incubation
Protocol: To determine the cell cycle specific mode of action, subdlones of RKO colon adenocarcinoma cells (RKOp27 or RKOp21 as described by Schmidt et al. in Oncogene 19, 2423-2429; 2000) are seeded into 96 well flat bottom plates at a density of 16000 cells per well in a volume of 50 μl per well in DMEM growth medium with 10% FCS containing 10 μM Ponasterone A. 24 hours after seeding the 50 μl each of the compound dilutions in DMEM medium are added into each well of the 96 Well plate. Each compound dilution is tested as quadruplicates. Wells containing untreated control cells are filled with 50 μl DMEM medium containing 1% DMSO. The cells are then incubated with the substances for 72 hours at 37° C. in a humidified atmosphere containing 5% carbon dioxide. To determine the viability of the cells, 10 μl of an Alamar Blue solution (Biosource) are added and the fluorescence was measured at an extinction of 544 nm and an emission of 590 nm. For the calculation of the cell viability the emission value from untreated cells is set as 100% viability and the emission rates of treated cells are set in relation to the values of untreated cells. Viabilities are expressed as % values. Viability is compared of proliferating cells grown in the absence of the inducer Ponasterone A, versus viability of cells arrested by the expression of ectopic p27Kip1 induced by Ponasterone A. The data of this experimental setting are summarized in table A (2nd column).

Compound	IC50 [1] [µM]	IC50 [2] [µM]
N#Cc1c(NC(=O)c2ccccc2)sc2c1CCN(C(=O)CCc1cccnc1)C2 [Compound 41, N-[3-Cyano-6-(3-pyridin-3-yl-propanoyl)-4,5,6,7-tetrahydro-thieno[2,3-c]pyridin-2-yl]-benzamide]	≤ 3	> 60
N#Cc1c(NC(=O)c2ccccc2)sc2c1CCN(C(=O)Cc1ccccn1)C2 [Compound 42, N-[3-Cyano-6-(2-pyridin-2-yl-ethanoyl)-4,5,7-tetrahydro-thieno[2,3-c]pyridin-2-yl]-benzamide]	≤ 3	> 60
CCOC(=O)N1CCc2c(sc(NC(=O)c3ccc([N+](=O)[O-])cc3)c2C#N)C1 [Compound 44, 3-Cyano-2-{[1-(4-nitro-phenyl)-methanoyl]-amino}-4,7-dihydro-5H-thieno[2,3-c]pyridine-6-carboxylic acid ethyl ester]	≤ 3	> 60
CCOC(=O)N1CCc2c(sc(NC(=O)c3cccc([N+](=O)[O-])c3)c2C#N)C1 [Compound 45, 3-Cyano-2{[1-(3-nitro-phenyl)-methanoyl]-amino}-4,7-dihydro-5H-thieno[2,3-c]pyridine-6-carboxylic acid ethyl ester]	≤ 3	> 60
CCOC(=O)N1CCc2c(sc(NC(=O)c3ccccc3[N+](=O)[O-])c2C#N)C1 [Compound 46, 3-Cyano-2-{[1-(2-nitro-phenyl)-methanoyl]-amino}-4,7-dihydro-5H-thieno[2,3-c]pyridine-6-carboxylic acid ethyl ester]	≤ 3	> 60
CCOC(=O)N1CCc2c(sc(NC(=O)c3ccc(Cl)cc3)c2C#N)C1 [Compound 47, 2-{[1-(4-Chloro-phenyl)-methanoyl]-amino}-3-cyano-4,7-dihydro-5H-thieno[2,3-c]pyridin-6-carboxylic acid ethyl ester]	≤ 3	> 60
CCOC(=O)N1CCc2c(sc(NC(=O)c3cccc(Cl)c3)c2C#N)C1 [Compound 48, 2-{[1-(3-Chloro-phenyl)-methanoyl]-amino}-3-cyano-4,7-dihydro-5H-thieno[2,3-c]pyridine-6-carboxylic acid ethyl ester]	≤ 3	> 60
CCOC(=O)N1CCc2c(sc(NC(=O)c3ccc(OC)cc3)c2C#N)C1 [Compound 49, 3-Cyano-2-{[1-(4-methoxy-phenyl)-methanoyl]-amino}-4,7-dihydro-5H-thieno[2,3-c]pyridine-6-carboxylic acid ethyl ester]	≤ 3	> 60
CCOC(=O)N1CCc2c(sc(NC(=O)c3ccc(C)cc3)c2C#N)C1 [Compound 50, 3-Cyano-2-[(1-p-tolyl-methanoyl)-amino]-4,7-dihydro-5H-thieno[2,3-c]pyridine-6-carboxylic acid ethyl ester]	≤ 3	> 60
CCOC(=O)N1CCc2c(sc(NC(=O)c3cccc(C)c3)c2C#N)C1 [Compound 51, 3-Cyano-2-[(1-m-tolyl-methanoyl)-amino]-4,7-dihydro-5H-thieno[2,3-c]pyridine-6-carboxylic acid ethyl ester]	≤ 3	> 60
CCOC(=O)N1CCc2c(sc(NC(=O)c3ccccc3C)c2C#N)C1 [Compound 52, 3-Cyano-2-[(1-o-tolyl-methanoyl)-amino]-4,7-dihydro-5H-thieno[2,3-c]pyridine-6-carboxylic acid ethyl ester]	≤ 3	> 60
CCOC(=O)N1CCc2c(sc(NC(=O)c3cccc(O)c3)c2C#N)C1 [Compound 53, 3-Cyano-2-{[1-(3-hydroxy-phenyl)-methanoyl]-amino}-4,7-dihydro-5H-thieno[2,3-c]pyridine-6-carboxylic acid ethyl ester]	≤ 3	> 60
COC(=O)N1CCc2c(sc(NC(=O)c3ccccc3)c2C#N)C1 [Compound 54, 3-Cyano-2-[(1-phenyl-methanoyl)-amino]-4,7-dihydro-5H-thieno[2,3-c]pyridine-6-carboxylic acid methyl ester]	≤ 3	> 60
CC(C)COC(=O)N1CCc2c(sc(NC(=O)c3ccccc3)c2C#N)C1 [Compound 56, 3-Cyano-2-[(1-phenyl-methanoyl)-amino]-4,7-dihydro-5H-thieno[2,3-c]pyridine-6-carboxylic acid isobutyl ester]	≤ 3	> 60
CCCCCCOC(=O)N1CCc2c(sc(NC(=O)c3ccccc3)c2C#N)C1 [Compound 57, 3-Cyano-2-[(1-phenyl-methanoyl)-amino]-4,7-dihydro-5H-thieno[2,3-c]pyridine-6-carboxylic acid hexyl ester]	≤ 3	> 60
CCCCOC(=O)N1CCc2c(sc(NC(=O)c3ccccc3)c2C#N)C1 [Compound 58, 3-Cyano-2-[(1-phenyl-methanoyl)-amino]-4,7-dihydro-5H-thieno[2,3-c]pyridine-6-carboxylic acid butyl ester]	≤ 3	> 60
N#Cc1c(NC(=O)c2ccccc2)sc2c1CCN(C(=O)Oc1ccccc1)C2 [Compound 59, 3-Cyano-2-[(1-phenyl-methanoyl)-amino]-4,7-dihydro-5H-thieno[2,3-c]pyridine-6-carboxylic acid phenyl ester]	≤ 3	> 60
COc1ccc(OC(=O)N2CCc3c(sc(NC(=O)c4ccccc4)c3C#N)C2)cc1 [Compound 60, 3-Cyano-2-[(1-phenyl-methanoyl)-amino]-4,7-dihydro-5H-thieno[2,3-c]pyridine-6-carboxylic acid 4-methoxy-phenyl ester]	≤ 3	> 60
N#Cc1c(NC(=O)c2ccccc2)sc2c1CCN(C(=O)OCc1ccccc1)C2 [Compound 61, 3-Cyano-2-[(1-phenyl-methanoyl)-amino]-4,7-dihydro-5H-thieno[2,3-c]pyridine-6-carboxylic acid benzyl ester]	≤ 3	> 60
N#Cc1c(NC(=O)c2ccccc2)sc2c1CCN(C(=O)OCc1ccccn1)C2 [Compound 62, 3-Cyano-2-[(1-phenyl-methanoyl)-amino]-4,7-dihydro-5H-thieno[2,3-c]pyridine-6-carboxylic acid pyridin-2-ylmethyl ester]	≤ 3	> 60
N#Cc1c(NC(=O)c2ccccc2)sc2c1CCN(C(=O)OCc1cccnc1)C2 [Compound 63, 3-Cyano-2-[(1-phenyl-methanoyl)-amino]-4,7-dihydro-5H-thieno[2,3-c]pyridine-6carboxylic acid pyridin-3-ylmethyl ester]	≤ 3	> 60
CCCOC(=O)N1CCc2c(sc(NC(=O)c3ccccc3)c2C#N)C1 [Compound 64, 3-Cyano-2-[(1-phenyl-methanoyl)-amino]-4,7-dihydro-5H-thieno[2,3-c]pyridine-6-carboxylic acid propyl ester]	≤ 3	> 60
N#Cc1c(NC(=O)c2ccccc2)sc2c1CCN(C(=O)OCCc1ccccc1)C2 [Compound 65, 3-Cyano-2-[(1-phenyl-methanoyl)-amino]-4,7-dihydro-5H-thieno[2,3-c]pyridine-6-carboxylic acid phenethyl ester]	≤ 3	> 60
N#Cc1c(NC(=O)c2ccccc2)sc2c1CCN(C(=O)OCc1ccncc1)C2 [Compound 66, 3-Cyano-2-[(1-phenyl-methanoyl)-amino]-4,7-dihydro-5H-thieno[2,3-c]pyridine-6-carboxylic acid pyridin-4-ylmethyl ester]	≤ 3	> 60

From patent US7714134B2, “Compounds and use of tetrahydropyridothiophenes” (4SC AG, priority 2004, dated 2010)
